The structures appear in SMILES notation.

One data set is described as follows: in vitro. The following applies: human, hela cells, % viability.
For `Oc1nccc(Oc2ccnc(Cl)n2)n1` [CBK000010], the viability – broadly, a read-out of living cells in per cent, often relative to untreated cells – at 28.5 h, 10 µM was determined as 98.5%.
Still for that read-out and setting: for `CCN(c1cc(N2CCCNCC2)ccc1NS(=O)(=O)c1cccc2cccnc12)S(C)(=O)=O` [CBK000014C] the value was 80.1%; for `OCCOc1cccc(-c2nnco2)c1` [CBK000033], 98.6%; for `COC(=O)c1cc(=O)c2ccccc2o1` [CBK000064], 91.8%.
`Cc1cccc2[nH]c(-c3ccccc3)nc12` [CBK000110]: the viability at 28.5 h, 10 µM stood at 92.9%.
Still for that read-out and setting: for `COc1ccc(Cc2n[nH]c(=O)n2-c2ccccc2)cc1` [CBK000112] the value was 107%; for `COc1ccc(-c2nc3cc(OC)ccc3[nH]2)cc1` [CBK000126], 90.5%; for `CC(C)(C)OC(=O)N1CCN(c2ccc([N+](=O)[O-])cn2)CC1` [CBK000134], 95.6%.
Same read-out and setting: for `CC(C)(C)OC(=O)N1CCN(c2ncc([N+](=O)[O-])s2)CC1` [CBK000135] the value was 92.1%; for `CC(C)(C)OC(=O)N1CCN(c2cc(NCc3ccccc3)ncn2)CC1` [CBK000137], 94.7%.
Take `O=C(Nc1ccc(-c2ccoc2)cc1C(=O)O)OCc1ccc([N+](=O)[O-])cc1` [CBK000141D]: the viability at 28.5 h, 10 µM worked out at 98.9%.
Same read-out and setting: with `Fc1cccc(N2CCN(Cc3ccccc3)CC2)n1` [CBK000144] the figure was 102%.
Still for that read-out and setting: for `Fc1cccc(NCc2ccccc2)n1` [CBK000149] the value was 94.9%; for `CC(C)(C)OC(=O)N1CCN(c2cncc(NCc3ccccc3)n2)CC1` [CBK000154], 112%.
Still for that read-out and setting: with `Cc1ccc(NC(=O)c2cccnc2)c(C(=O)O)c1` [CBK000177] the figure was 103%; with `O=C(O)CCn1c2ccccc2c2ccccc21` [CBK000208], 87.7%; with `c1ccc2c(c1)CC(Oc1cncc(N3CCNCC3)n1)C2` [CBK000242G], 106%.
For the compound `O=C(O)CCCCn1c2c(c3ccccc31)CCCC2` [CBK000253], the viability at 28.5 h, 10 µM stood at 98.9%.
The same measure, in the same setting: with `Cc1nn(C)c(Oc2ccc3c(c2)CCCC3)c1[N+](=O)[O-]` [CBK000273] the figure was 91.2%; with `Cc1ccc(Oc2c([N+](=O)[O-])c(C)nn2C)c(Br)c1` [CBK000283], 90.6%.
With `CN(Cc1ccccc1)c1nc(C(F)(F)F)cc(=O)[nH]1` [CBK000319], the viability at 28.5 h, 10 µM is 92%.
Take `Oc1cc(C(F)(F)F)nc(N2CCc3ccccc3C2)n1` [CBK000344]: the viability at 28.5 h, 10 µM was 82%.
The same measure, in the same setting: with `CC(=O)Nc1ccc(S(=O)(=O)Nc2ccnc(N3CCNCC3)n2)cc1` [CBK000363C] the figure was 92.5%; with `COc1ccc(OC)c(-c2ccc(NC(=O)c3ccc(Cl)cc3Cl)c(C(=O)O)c2)c1` [CBK000393D], 90.8%.
Still for that read-out and setting: with `COC(=O)c1cc(-c2ccccc2OCc2ccccc2)ccc1NC(=O)c1ccc(Cl)cc1Cl` [CBK000415] the figure was 88.5%; with `COC(=O)c1cccc2c3c([nH]c12)CCCC3` [CBK000423], 87.8%.
Still for that read-out and setting: for `CC(C)(CN)CN(Cc1ccc(Cl)cc1Cl)C(=O)NCCc1c[nH]c2ccccc12` [CBK000460C] the value was 89.4%; for `CC(NC(=O)N(Cc1cccc2ccccc12)C1CCC(N)CC1)c1cccc2ccccc12` (stereo not shown) [CBK000482C], 67.8%; for `CC(=O)Oc1cc(C(F)(F)F)nc(NCc2ccc(Cl)cc2)n1` [CBK000500], 94.7%.
For the compound `Oc1cc(C(F)(F)F)nc(Nc2ccccc2)n1` [CBK000517], the viability at 28.5 h, 10 µM was 89.3%.
Still for that read-out and setting: for `CC(C)(C)OC(=O)NCc1ccc2cccc(OCCO)c2n1` [CBK000585] the value was 83.3%.
The same measure, in the same setting: for `O=[N+]([O-])c1ccc(F)cc1NS(=O)(=O)c1ccccc1` [CBK000674] the value was 93.1%; for `NCCC(=O)N(CCc1cc(C(F)(F)F)cc(C(F)(F)F)c1)c1cccc2ccccc12` [CBK000695T], 0%.
On the same count and under the same terms, for `NCCN(C(=O)CCc1cc(C(F)(F)F)cc(C(F)(F)F)c1)c1ccc2c(c1)OCO2` [CBK000701T] the value was 105%; for `CSc1nccc(OCCOc2nccnc2N2CCNCC2)n1` [CBK000718G], 104%.
Take `N#Cc1ccc(OCCO)cc1` [CBK000723]: the viability at 28.5 h, 10 µM came out at 107%.
The same measure, in the same setting: with `O=C(c1ccccc1)c1ccccc1OCCO` [CBK000728] the figure was 116%; with `COC(=O)Cc1nc(NS(=O)(=O)c2ccc(Oc3cccc(Cl)c3C#N)cc2)sc1C` [CBK000744], 98.3%.
Still for that read-out and setting: with `CCOC(=O)c1sc(NS(=O)(=O)c2cccc(Cl)c2C)nc1-c1ccccc1` [CBK000749] the figure was 92.7%; with `COc1ccc(-n2nc(C)c3onc(C)c3c2=O)cc1` [CBK000853], 101%; with `Cc1c(C)n(CC(=O)O)c2ccccc12` [CBK000884], 97%.
On the same count and under the same terms, with `CCOC(=O)Cc1csc(NS(=O)(=O)c2cn(C)cn2)n1` [CBK000888] the figure was 112%.
For `Cc1cc(Cl)cc(Cl)c1S(=O)(=O)Nc1nc(-c2cccc([N+](=O)[O-])c2)cs1` [CBK000902], the viability at 28.5 h, 10 µM is 111%.
Still for that read-out and setting: for `CCCc1ccc(S(=O)(=O)Nc2nc(-c3cccc([N+](=O)[O-])c3)cs2)cc1` [CBK000987] the value was 88.1%; for `CCc1csc(C(=Cc2ccc(OC)cc2)C(N)=O)n1` [CBK001010], 86.9%.
Take `COc1ccc(CCCCN(C(=O)C(N)Cc2ccccc2)c2cccc3ccccc23)cc1OC` (stereo not shown) [CBK001032T]: the viability at 28.5 h, 10 µM amounted to 118%.
As to `CNCC(=O)N(CCc1cc(C(F)(F)F)cc(C(F)(F)F)c1)c1ccc2c(c1)OCO2` [CBK001038T], the viability at 28.5 h, 10 µM is 120%.
Still for that read-out and setting: with `CCOC(=O)CCC(=O)n1c2ccccc2c2ccccc21` [CBK001170] the figure was 67.2%; with `O=C(CN1CCOCC1)Nc1ccc(S(=O)(=O)Nc2cc(Cl)cc(Cl)c2)cc1` [CBK001239], 89.1%; with `O=[N+]([O-])c1cc(S(=O)(=O)Nc2ccccc2)ccc1N1CCN2CCCC2C1` (stereo not shown) [CBK001248], 87.7%.
Still for that read-out and setting: with `O=C(O)c1ccc2[nH]c3c(c2c1)CCCC3` [CBK001252] the figure was 90.9%.
The same measure, in the same setting: for `COc1cccc2cc(C3CN(C(=O)C(C)(C)NC(=O)OC(C)(C)C)CC3C(=O)O)oc12` (stereo not shown) [CBK001348] the value was 102%.
For the compound `CN(c1cc(F)ccc1[N+](=O)[O-])S(C)(=O)=O` [CBK001365], the viability at 28.5 h, 10 µM turned out to be 82.1%.
Still for that read-out and setting: with `CC1CCN(c2ccc([N+](=O)[O-])c(N3CCC(C)CC3)c2)CC1` [CBK001367] the figure was 92.5%; with `CN(c1cc(F)ccc1[N+](=O)[O-])S(=O)(=O)c1ccccc1` [CBK001369], 97.5%; with `CSc1nc(O)cc(C(F)(F)F)n1` [CBK001401], 112%.
In the case of `N#Cc1ccccc1OCCO` [CBK001443], the viability at 28.5 h, 10 µM was found to be 97.9%.
With `COCCOc1ncccc1OCc1ccccc1` [CBK001456], the viability at 28.5 h, 10 µM amounted to 92.9%.
Still for that read-out and setting: for `CC(C)Oc1ncccc1OCc1ccccc1` [CBK001457] the value was 124%.
`Brc1ncccc1OCc1ccccc1` [CBK001458]: the viability at 28.5 h, 10 µM worked out at 82.6%.
Still for that read-out and setting: for `CCCOc1ncccc1O` [CBK001459] the value was 89.7%; for `OCCOc1cccnc1OCC1CC1` [CBK001461], 89.4%.
Same read-out and setting: with `Cc1nn(C)c(=O)c2c(C)noc12` [CBK001462] the figure was 101%; with `CC(C)Oc1ncccc1OCCO` [CBK001465], 112%; with `Cc1ccc(S(=O)(=O)Nc2ccc(N3C[C@@H](C)N[C@@H](C)C3)c3ccccc23)cc1` [CBK001486C], 87.8%.
On the same count and under the same terms, for `CCNc1cc(N2CCN(C)CC2)ccc1NS(=O)(=O)c1ccc(F)cc1F` [CBK001496C] the value was 95.8%.
Take `CN1CCCN(c2ccc(NS(=O)(=O)c3ccc(F)cc3F)c3ccccc23)CC1` [CBK001499C]: the viability at 28.5 h, 10 µM was 64.8%.
On the same count and under the same terms, for `CCC1CNCCN1c1nccnc1OCCOc1cccnc1` (stereo not shown) [CBK001559F] the value was 121%; for `COC(=O)c1cccc2c(C)c(C)[nH]c12` [CBK001563], 97.4%; for `C[C@@H]1CN(Cc2ccccc2)C[C@H](C)N1` [CBK001569], 86.1%.
The same measure, in the same setting: for `CCCCN(CCCC)c1nccnc1Cl` [CBK001576] the value was 94.7%; for `Cc1ccc2oc([C@H]3CN(C(=O)C4CCN(C(=O)OC(C)(C)C)CC4)C[C@@H]3C(=O)O)cc2c1` [CBK001601], 90.7%; for `CC(=O)N1CCc2ccc(S(=O)(=O)n3ccc4c(N5CCNCC5)cccc43)cc2C1` [CBK001632C], 101%.
Still for that read-out and setting: with `COC(=O)c1cccc2c1[nH]c1ccccc12` [CBK001709] the figure was 99.9%; with `NC(=O)c1cccc(COc2ccccc2C(=O)Nc2ccc(-c3ccsc3)cc2C(=O)O)c1` [CBK001718], 82.6%.
Consider `OCc1ccnc2ccccc12` [CBK001746], for which the viability at 28.5 h, 10 µM amounted to 87.4%.
Same read-out and setting: for `OCCOc1cccc2cccnc12` [CBK001784] the value was 104%; for `OCCOc1nc2ccccc2s1` [CBK001812], 97.2%.
Same read-out and setting: with `c1cncc(OCCOc2nsnc2N2CCNCC2)c1` [CBK001825G] the figure was 94.4%; with `c1cnc(N2CCNCC2)c(OC2CCCCC2)n1` [CBK001837C], 92.7%.
On the same count and under the same terms, with `CCCOc1nccnc1N1CCNCC1` [CBK001839G] the figure was 82.4%; with `Cc1cc(N2CCN(C(=O)OC(C)(C)C)CC2)nc(N)n1` [CBK001843], 110%.
Turning to `c1cc(CNCCN2CCOCC2)cs1` [CBK001894], the viability at 28.5 h, 10 µM was 105%.

The data set is the same for the next values; noted with them: human, hela cells, % viability, bulk resorufin, single well.
As for `CCn1nc(-c2ccccc2)nc2c(=O)n(C)c(=O)nc1-2` [CBK000921], the viability at 28.5 h, 10 µM was 92.1%.
Same read-out and setting: with `CC(N)c1cc2ccccc2o1` (stereo not shown) [CBK001492C] the figure was 97.7%.

The values above are taken from publication PMC12040169 (PLOS Biology, 2025).
